A short description of series [1]: Mean residence time determined after administration of 10 mg/kg dose po in mouse. On the set-up: dose 10 mg/kg, route oral. The format is ADME, organism-based. Particulars: in vivo.
Series [2] deals with Protein kinase C alpha type (Homo sapiens, UniProt P17252). As to the kind of experiment: Inhibition of human protein kinase C alpha.
Series [3] in a line: Oral bioavailability determined after administration of 10 mg/kg dose po in mouse. Particulars: in vivo. The format is ADME, organism-based.
The nature of series [4]: Area under curve determined after administration of 5 mg/kg dose iv in mouse. It is filed as ADME, organism-based. The arrangement: dose 5 mg/kg, route intravenous. Particulars: in vivo.
Series [5] is described as follows: Half-life determined after administration of 5 mg/kg dose iv in mouse. The format is ADME, organism-based. The arrangement: dose 5 mg/kg, route intravenous. To be noted: in vivo.
The target of series [6] is Fibroblast growth factor receptor (Homo sapiens, UniProt P22607+P11362+P22455+P21802). As to the kind of experiment: Inhibition of FGF-stimulated human umbilical vein endothelial cell proliferation. It is filed as functional, cell-based.
The nature of series [7]: Mean residence time determined after administration of 5 mg/kg dose iv in mouse. It is filed as ADME, organism-based. The arrangement: dose 5 mg/kg, route intravenous. To be noted: in vivo.
A short description of series [8]: Half-life determined after administration of 10 mg/kg dose po in mouse. It is filed as ADME, organism-based. The arrangement: dose 10 mg/kg, route oral. Particulars: in vivo.
Series [9] deals with Mus musculus. The series is described as follows: Tumor growth inhibition of L2987 human lung carcinoma xenografts implanted subcutaneously in athymic mouse after oral administration of 100 mg/kg/day. The format is functional. To be noted: read-out: TGI.
Series [10] in a line: Maximum plasma concentration determined after administration of 10 mg/kg dose po in mouse. The arrangement: dose 10 mg/kg, route oral. The format is ADME, organism-based.
Series [11] relates to Mus musculus. As to the kind of experiment: Tumor growth inhibition of L2987 human lung carcinoma xenografts implanted subcutaneously in athymic mouse after oral administration of 150 mg/kg/day. The format is functional. Particulars: read-out: TGI.
The nature of series [12]: Systemic plasma clearance determined after administration of 5 mg/kg dose iv in mouse. On the set-up: dose 5 mg/kg, route intravenous. The format is ADME, organism-based.
Series [13] in a line: Plasma level after 4 hours of oral administration of 10 mg/kg compound in mouse.
For series [14], the target named is Cyclin-dependent kinase 2 (Homo sapiens, UniProt P24941). The series is described as follows: Inhibition of human cyclin-dependent kinase 2.
The nature of series [15]: Area under curve determined after administration of 10 mg/kg dose po in mouse. It is filed as ADME, organism-based. The arrangement: dose 10 mg/kg, route oral. Particulars: in vivo.
For series [16], the target named is Fibroblast growth factor receptor 1 (Homo sapiens, UniProt P11362). The series is described as follows: Inhibition of human fibroblast growth factor receptor 1.
Series [17] can be described thus: Total time required to reach maximum plasma concentration after administration of 10 mg/kg dose po in mouse. It is filed as ADME, organism-based. The arrangement: dose 10 mg/kg, route oral.
Series [18] addresses Receptor tyrosine-protein kinase erbB-2 (Homo sapiens, UniProt P04626). As to the kind of experiment: Inhibition against human HER2 kinase.
For series [19], the system named is Mus musculus. The series is described as follows: Tumor growth inhibition of L2987 human lung carcinoma xenografts implanted subcutaneously in athymic mouse after oral administration of 50 mg/kg/day. It is filed as functional. To be noted: read-out: TGI. Background: In xenograft studies the graft and the host belong to different species.
For series [20], the target named is Tyrosine-protein kinase Lck (Homo sapiens, UniProt P06239). As to the kind of experiment: Inhibition of human p56 lck tyrosine kinase.
The nature of series [21]: Maximum plasma concentration determined after administration of 5 mg/kg dose iv in mouse. The format is ADME, organism-based. On the set-up: dose 5 mg/kg, route intravenous.
Series [22] in a line: Plasma level after 1 hour of oral administration of 10 mg/kg compound in mouse.
Series [23] is described as follows: Steady-state volume of distribution determined after administration of 5 mg/kg dose iv in mouse. It is filed as ADME, organism-based. On the set-up: dose 5 mg/kg, route intravenous. Particulars: in vivo, read-out: Vss.

As a reminder, the MRT is the average time that molecules of a dose stay in the body. In general, IC50 refers to the midpoint of a concentration-inhibition curve. Read a low IC50 as inhibition by little substance. One may read the bioavailability as dose-corrected exposure relative to a reference, in per cent. A word on the AUC: it is the area under the concentration-time curve, a measure of exposure. High values mean high exposure, low ones low exposure. What is called half-life is the time needed for the level to fall by half in the phase considered. A higher half-life goes with slow loss. Usually Cmax stands for the peak of the concentration-time curve. One may read the clearance as the rate of elimination divided by the concentration. A low value points to a low capacity for elimination. In general, Tmax refers to the time from dosing to the highest level.

Structures are written as SMILES.

Chain of Receptor tyrosine-protein kinase erbB-2 (P04626 whole entry): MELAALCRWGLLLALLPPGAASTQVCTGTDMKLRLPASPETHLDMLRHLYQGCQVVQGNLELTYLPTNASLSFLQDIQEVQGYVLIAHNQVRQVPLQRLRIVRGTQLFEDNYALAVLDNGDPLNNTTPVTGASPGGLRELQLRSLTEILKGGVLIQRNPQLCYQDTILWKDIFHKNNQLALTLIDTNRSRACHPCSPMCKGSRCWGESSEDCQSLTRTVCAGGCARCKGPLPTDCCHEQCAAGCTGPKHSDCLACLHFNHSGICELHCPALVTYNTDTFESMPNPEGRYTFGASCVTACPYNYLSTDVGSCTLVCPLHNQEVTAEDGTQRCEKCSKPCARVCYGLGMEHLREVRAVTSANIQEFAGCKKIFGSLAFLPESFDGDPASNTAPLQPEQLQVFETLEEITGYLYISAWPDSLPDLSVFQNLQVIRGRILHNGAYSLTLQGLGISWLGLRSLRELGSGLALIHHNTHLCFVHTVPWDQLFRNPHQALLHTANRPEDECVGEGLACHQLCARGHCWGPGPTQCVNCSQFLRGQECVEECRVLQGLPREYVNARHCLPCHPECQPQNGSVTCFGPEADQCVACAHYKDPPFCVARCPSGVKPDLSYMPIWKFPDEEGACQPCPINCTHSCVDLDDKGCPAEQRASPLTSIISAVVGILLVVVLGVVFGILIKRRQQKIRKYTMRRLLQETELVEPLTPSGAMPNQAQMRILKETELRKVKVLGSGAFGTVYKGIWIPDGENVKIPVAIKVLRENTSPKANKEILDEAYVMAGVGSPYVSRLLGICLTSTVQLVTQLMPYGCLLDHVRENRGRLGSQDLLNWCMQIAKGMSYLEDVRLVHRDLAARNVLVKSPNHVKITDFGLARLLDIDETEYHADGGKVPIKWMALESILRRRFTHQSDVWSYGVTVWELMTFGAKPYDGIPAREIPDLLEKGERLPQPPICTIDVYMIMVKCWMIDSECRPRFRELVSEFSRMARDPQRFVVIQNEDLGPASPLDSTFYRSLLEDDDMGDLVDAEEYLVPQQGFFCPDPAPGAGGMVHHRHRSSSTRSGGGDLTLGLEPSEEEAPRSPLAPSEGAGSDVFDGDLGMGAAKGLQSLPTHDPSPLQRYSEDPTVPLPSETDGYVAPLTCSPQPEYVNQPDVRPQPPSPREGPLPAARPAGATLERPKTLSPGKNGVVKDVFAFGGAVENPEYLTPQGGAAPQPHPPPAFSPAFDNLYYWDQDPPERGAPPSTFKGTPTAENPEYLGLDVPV
Chain of Tyrosine-protein kinase Lck (P06239 whole entry): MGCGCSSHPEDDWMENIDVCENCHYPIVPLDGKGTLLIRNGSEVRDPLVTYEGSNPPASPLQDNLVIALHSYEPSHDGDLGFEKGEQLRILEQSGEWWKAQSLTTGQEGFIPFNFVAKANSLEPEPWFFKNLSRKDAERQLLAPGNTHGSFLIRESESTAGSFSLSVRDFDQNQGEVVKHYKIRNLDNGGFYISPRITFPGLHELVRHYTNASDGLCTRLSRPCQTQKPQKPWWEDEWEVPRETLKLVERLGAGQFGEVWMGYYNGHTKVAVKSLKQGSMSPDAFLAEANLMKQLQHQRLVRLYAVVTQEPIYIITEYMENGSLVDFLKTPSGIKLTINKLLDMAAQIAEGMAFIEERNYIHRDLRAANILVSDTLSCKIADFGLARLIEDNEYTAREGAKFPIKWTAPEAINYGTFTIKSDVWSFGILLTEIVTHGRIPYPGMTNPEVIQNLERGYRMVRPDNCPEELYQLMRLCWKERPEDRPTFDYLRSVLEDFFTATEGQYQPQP
Chain of Fibroblast growth factor receptor 1 (P11362 whole entry): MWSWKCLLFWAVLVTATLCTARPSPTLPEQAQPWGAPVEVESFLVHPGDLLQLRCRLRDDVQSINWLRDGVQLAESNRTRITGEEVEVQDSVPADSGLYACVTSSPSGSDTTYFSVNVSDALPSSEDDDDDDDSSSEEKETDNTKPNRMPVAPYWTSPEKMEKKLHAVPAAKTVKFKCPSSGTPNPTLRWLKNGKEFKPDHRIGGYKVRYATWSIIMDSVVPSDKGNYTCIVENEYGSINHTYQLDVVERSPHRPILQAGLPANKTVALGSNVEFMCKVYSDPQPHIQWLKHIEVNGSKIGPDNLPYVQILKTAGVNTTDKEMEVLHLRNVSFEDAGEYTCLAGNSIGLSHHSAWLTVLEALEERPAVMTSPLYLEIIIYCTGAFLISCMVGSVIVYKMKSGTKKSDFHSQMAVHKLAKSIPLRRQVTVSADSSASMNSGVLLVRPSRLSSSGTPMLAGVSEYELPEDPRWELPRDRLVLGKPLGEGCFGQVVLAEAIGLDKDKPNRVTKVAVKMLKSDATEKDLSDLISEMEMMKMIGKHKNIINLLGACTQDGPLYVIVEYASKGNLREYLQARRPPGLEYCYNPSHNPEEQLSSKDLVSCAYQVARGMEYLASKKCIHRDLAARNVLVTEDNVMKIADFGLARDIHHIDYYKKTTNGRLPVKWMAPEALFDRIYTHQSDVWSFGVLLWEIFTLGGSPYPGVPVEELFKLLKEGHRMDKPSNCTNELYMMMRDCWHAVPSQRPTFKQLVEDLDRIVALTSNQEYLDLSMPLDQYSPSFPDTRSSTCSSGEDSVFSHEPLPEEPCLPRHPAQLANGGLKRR

On to `CONC(=O)c1cc(Nc2ncnn3cc(-c4nnc(C(F)(F)S(C)(=O)=O)o4)c(C(C)C)c23)c(F)cc1F`, for which the MRT in series [1] came to 5.2 h; in [7], 4.9 h. In addition, the IC50 was over 50 µM in [2]; 0.13 µM in series [6]; over 50 µM in series [14]; 0.22 µM in series [16]; over 25 µM in [18]; 7.8 µM in series [20]. The bioavailability in series [3] was determined as 79%. The AUC in series [4] was found to be 97.4 µM·h; in series [15], 155 µM·h. Further, the half-life in series [5] was 2.5 h; in series [8], 3.6 h. Also, the inhibition in vivo at 100 mg/kg/day in the series on Mus musculus [9] worked out at 87.5%. In addition, the Cmax was found to be 27.7 µM in [10] and 23.7 µM in series [21]. In the series on Mus musculus [11], the inhibition in vivo at 150 mg/kg/day is 94.2%. The molecule further displayed a clearance in series [12] of 1.53 mL/min/kg. Further, the concentration at 4 h in [13] was determined as 13.8 µM. Further, in [17], the Tmax was found to be 0.5 h. Besides, the inhibition in vivo at 50 mg/kg/day in the series on Mus musculus [19] was 63.9%. In series [22], this molecule came in with a concentration at 1 h of 26.6 µM. Moreover, the Vd in series [23] turned out to be 0.45 L/kg.

For the origin of these results see ChEMBL document CHEMBL1144449, “Design, synthesis, and evaluation of orally active 4-(2,4-difluoro-5-(methoxycarbamoyl)phenylamino)pyrrolo[2,1-f][1,2,4]triazines as dual vascular endothelial growth factor receptor-2 and fibroblast growth factor receptor-1 inhibitors” (J Med Chem, 2005).
